This note sets out measurements from patent US20240400553A1, “AMINE BASED MATRIPTASE 2 INHIBITORS AND USES THEREOF” (Disc Medicine, Inc., priority 2023, published 2024).

The target in one test is T1, Human Recombinant Matriptase 2 (Homo sapiens, UniProt Q8IU80).
T1 construct: made in house
T1 sequence (Q8IU80 1-811): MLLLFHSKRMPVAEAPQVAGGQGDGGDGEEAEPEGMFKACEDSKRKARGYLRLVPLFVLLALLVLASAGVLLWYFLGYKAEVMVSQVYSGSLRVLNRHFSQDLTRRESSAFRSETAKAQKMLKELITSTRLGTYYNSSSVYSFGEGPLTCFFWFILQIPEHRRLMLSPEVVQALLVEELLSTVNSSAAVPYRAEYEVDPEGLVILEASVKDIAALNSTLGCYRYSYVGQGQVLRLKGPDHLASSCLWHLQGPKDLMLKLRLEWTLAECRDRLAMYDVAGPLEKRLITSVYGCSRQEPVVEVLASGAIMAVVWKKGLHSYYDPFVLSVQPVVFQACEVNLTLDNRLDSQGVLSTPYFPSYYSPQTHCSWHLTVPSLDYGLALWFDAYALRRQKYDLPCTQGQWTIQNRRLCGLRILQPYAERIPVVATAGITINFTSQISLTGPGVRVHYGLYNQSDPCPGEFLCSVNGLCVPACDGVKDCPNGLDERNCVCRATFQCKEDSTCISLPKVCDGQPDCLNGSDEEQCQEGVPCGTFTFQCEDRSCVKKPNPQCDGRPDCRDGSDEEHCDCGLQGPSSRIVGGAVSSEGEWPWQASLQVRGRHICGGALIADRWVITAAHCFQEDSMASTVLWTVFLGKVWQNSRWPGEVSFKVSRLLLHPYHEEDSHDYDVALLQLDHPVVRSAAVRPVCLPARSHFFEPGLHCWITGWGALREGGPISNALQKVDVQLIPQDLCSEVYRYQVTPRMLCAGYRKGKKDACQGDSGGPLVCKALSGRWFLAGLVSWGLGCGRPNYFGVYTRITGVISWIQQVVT
In words: Matriptase 2 inhibition, fluorescence based assay (Method I). The format is biochemical. As to conditions: Table A; Ki of Matriptase-2; read-out: Mat-2 Ki. The gist of the method: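 In-house recombinant enzyme (3.5 nM), preincubated 30 min with compound, then Boc-Gln-Ala-Arg-AMC substrate (62 μM) in 50 mM Tris pH 7.5, 150 mM NaCl, 0.01% gelatin, 1% DMSO, 25 °C. Fluorescence (Ex 360/Em 480 nm) read 60 min after substrate; IC50 from variable-slope sigmoidal fit of % inhibition.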
As a reminder, the Ki is the dissociation constant of the complex between target and ligand, obtained from inhibition or displacement. With `CN1CCC(COC(=O)c2cc3ccc(CN)nc3n2Cc2cc(NS(=O)(=O)Cc3ccc(F)s3)cc3ccccc23)CC1` [Compound 149, (1-methylpiperidin-4-yl)methyl 6-(amino-methyl)-1-({3-[(5-fluoro-thiophen-2-yl)methane-sulfonamido]naphthalen-1-yl}methyl)-1H-pyr-rolo[2,3-b]pyridine-2-carboxylate], the Ki is at most 100 nM.
On the same count and under the same terms, the same measure for `NCc1ccc2cc(C(=O)OCCN3CCS(=O)(=O)CC3)n(Cc3cc(NS(=O)(=O)Cc4ccccc4)cc4ccccc34)c2n1` [Compound 77, 2-(1,1-dioxo-1-thio-morpholin-4-yl)ethyl 6-(aminomethyl)-1-{[3-(phenylmethanesulfon-amido)naphthalen-1-yl]-methyl}-1H-pyrrolo[2,3-b]pyridine-2-carboxylate]: at most 100 nM; for `CC(C)N(CCOC(=O)c1cc2ccc(CN)nc2n1Cc1cc(NS(=O)(=O)Cc2ccccc2)cc2ccccc12)C(C)C` [Compound 131, 2-[bis(propan-2-yl)-amino]ethyl 6-(amino-methyl)-1-{[3-(phenyl-methanesulfonamido)-naphthalen-1-yl]meth-yl}-1H-pyrrolo[2,3-b]-pyridine-2-carboxylate]: 100 to 500 nM.
Same read-out and setting: the same measure for `CC(C)(C)n1ccc(COC(=O)c2cc3ccc(CN)nc3n2Cc2cc(NS(=O)(=O)Cc3ccccc3)cc3ccccc23)n1` [Compound 106, (1-tert-butyl-1H-pyrazol-3-yl)methyl 6-(amino-methyl)-1-{[3-(phenyl-methanesulfonamido)-naphthalen-1-yl]methyl}-1H-pyrrolo[2,3-b]pyr-idine-2-carboxylate]: 100 to 500 nM; for `NCc1ccc2cc(C(=O)OC[C@H]3COCCN3)n(Cc3cc(NS(=O)(=O)Cc4ccsc4)cc4ccccc34)c2n1` [Compound 158, [(3R)-morpholin-3-yl]-methyl 6-(aminometh-yl)-1-({3-[(thiophen-3-yl)methanesulfonamido]-naphthalen-1-yl}meth-yl)-1H-pyrrolo[2,3-b]-pyridine-2-carboxylate]: at most 100 nM; for `NCc1ccc2cc(C(=O)OCCO)n(Cc3cc(NS(=O)(=O)Cc4ccccc4)cc4ccccc34)c2n1` [Compound 82, 2-hydroxyethyl 6-(amino-methyl)-1-{[3-(phenyl-methanesulfonamido)-naphthalen-1-yl]methyl}-1H-pyrrolo[2,3-b]pyr-idine-2-carboxylate]: 100 to 500 nM.
Still for that read-out and setting: the same measure for `CC(C)CN1CCC(COC(=O)c2cc3ccc(CN)nc3n2Cc2cc(NS(=O)(=O)Cc3ccccc3)cc3ccccc23)CC1` [Compound 43, [1-(2-methylpropyl)-piperidin-4-yl]methyl 6-(aminomethyl)-1-{[3-(phenylmethanesulfon-amido)naphthalen-1-yl]-methyl}-1H-pyrrolo[2,3-b]pyridine-2-carboxylate]: at most 100 nM.
Turning to `NCc1ccc2cc(C(=O)OC[C@H]3COCCN3)n(Cc3cc(NS(=O)(=O)Cc4ccccc4)cc4ccccc34)c2n1` [Compound 22, [(3R)-morpholin-3-yl]-methyl 6-(aminomethyl)-1-{[3-(phenylmethane-sulfonamido)naphthalen-1-yl]methyl}-1H-pyr-rolo[2,3-b]pyridine-2-carboxylate], the inhibitory constant (Ki) was at most 100 nM.
With `CN1CCC(CCNC(=O)c2cc3ccc(CN)nc3n2Cc2cc(NS(=O)(=O)Cc3ccccc3)cc3ccccc23)CC1` [Compound 44, 6-(aminomethyl)-N-[2-(1-methylpiperidin-4-yl)ethyl]-1-{[3-(phenyl-methanesulfonamido)-naphthalen-1-yl]methyl}-1H-pyrrolo[2,3-b]pyr-idine-2-carboxamide], the Ki was at most 100 nM.
Still for that read-out and setting: the same measure for `CCOC(=O)c1cc2ccc(CN)nc2n1Cc1cc(NS(=O)(=O)Cc2ccccc2)cc2ccccc12` [Compound 115, ethyl 6-(aminomethyl)-1-{[3-(phenylmethanesul-fonamido)naphthalen-1-yl]methyl}-1H-pyrrolo-[2,3-b]pyridine-2-car-boxylate]: 500 to 3000 nM; for `NCc1ccc2cc(C(=O)OCCC3CCOCC3)n(Cc3cc(NS(=O)(=O)Cc4ccsc4)cc4ccccc34)c2n1` [Compound 179, 2-(oxan-4-yl)ethyl 6-(aminomethyl)-1-({3-[(thiophen-3-yl)methane-sulfonamido]naphthalen-1-yl}methyl)-1H-pyr-rolo[2,3-b]pyridine-2-carboxylate]: 100 to 500 nM.
Still for that read-out and setting: next, `NCc1ccc2cc(C(=O)O)n(Cc3cc(NS(=O)(=O)Cc4ccccc4)cc4ccccc34)c2n1` [Compound 62, 6-(aminomethyl)-1-{[3-(phenylmethanesulfon-amido)naphthalen-1-yl]-methyl}-1H-pyrrolo[2,3-b]pyridine-2-carboxylic acid]: at most 100 nM; `CN(C)CCOCCOC(=O)c1cc2ccc(CN)nc2n1Cc1cc(NS(=O)(=O)Cc2ccccc2)cc2ccccc12` [Compound 58, 2-[2-(dimethylamino)-ethoxy]ethyl 6-(amino-methyl)-1-{[3-(phenyl-methanesulfonamido)-naphthalen-1-yl]methyl}-1H-pyrrolo[2,3-b]pyr-idine-2-carboxylate]: at most 100 nM; `CN1CCC(COC(=O)c2cc3ccc(CN)nc3n2Cc2cc(NS(=O)(=O)Cc3cccs3)cc3ccccc23)CC1` [Compound 146, (1-methylpiperidin-4-yl)-methyl 6-(aminometh-yl)-1-({3-[(thiophen-2-yl)methanesulfonamido]-naphthalen-1-yl}methyl)-1H-pyrrolo[2,3-b]pyr-idine-2-carboxylate]: at most 100 nM.

The same test, now with this note: Table A; Ki of Matriptase-2 given as class symbols; read-out: Mat-2 Ki.
For the compound `NCc1ccc2cc(C(=O)O)n(Cc3cc(NS(=O)(=O)[C@H]4CCOC4)cc4ccccc34)c2n1` [Compound 280, 6-(aminomethyl)-1-({3-[(3S)-oxolane-3-sulfon-amido]naphthalen-1-yl}-methyl)-1H-pyrrolo[2,3-b]pyridine-2-carboxylic acid], the Ki was in the range of 500 to 3000 nM.
Same read-out and setting: next, `CC(C)(C)S(=O)(=O)N1CCC(CS(=O)(=O)Nc2cc(Cn3c(C(=O)O)cc4ccc(CN)nc43)c3ccccc3c2)CC1` [Compound 267, 6-(aminomethyl)-1-[(3-{[1-(2-methylpropane-2-sulfonyl)piperidin-4-yl]-methanesulfonamido}-naphthalen-1-yl)methyl]-1H-pyrrolo[2,3-b]pyr-idine-2-carboxylic acid]: 100 to 500 nM; `NCc1ccc2cc(C(=O)O)n(Cc3cc(NS(=O)(=O)Cc4ccco4)cc4ccccc34)c2n1` [Compound 236, 6-(aminomethyl)-1-({3-[(furan-2-yl)methane-sulfonamido]naphthalen-1-yl}methyl)-1H-pyr-rolo[2,3-b]pyridine-2-carboxylic acid]: 100 to 500 nM; `NCc1ccc2cc(C(=O)O)n(Cc3cc(NS(=O)(=O)CC4CNCCO4)cc4ccccc34)c2n1` (racemic) [Compound 224, 6-(aminomethyl)-1-({3-[(morpholin-2-yl)-methanesulfonamido]-naphthalen-1-yl}meth-yl)-1H-pyrrolo[2,3-b]-pyridine-2-carboxylic acid]: 100 to 500 nM.
Still for that read-out and setting: the same measure for `NCc1ccc2cc(CO)n(Cc3cc(NS(=O)(=O)CC4CCNCC4)cc4ccccc34)c2n1` [Compound 362]: 100 to 500 nM.
Same read-out and setting: the same measure for `CC(=O)OC(C)OC(=O)c1cc2ccc(CN)nc2n1Cc1cc(NS(=O)(=O)CC[C@@H]2CCCN2)cc2ccccc12` (stereo partly drawn) [Compound 275, 1-[6-(aminomethyl)-1-[(3-{2-[(2S)-pyrrolidin-2-yl]ethanesulfonamido}naphthalen-1-yl)methyl]-1H-pyrrolo[2,3-b]pyr-idine-2-carbonyloxy]-ethyl acetate]: 500 to 3000 nM; for `CCOC(=O)c1cc2ccc(CN)nc2n1Cc1cc(NS(=O)(=O)CC[C@@H]2CCCN2)cc2ccccc12` [Compound 269, ethyl 6-(aminomethyl)-1-[(3-{2-[(2S)-pyrrolidin-2-yl]ethanesulfonamido}-naphthalen-1-yl)methyl]-1H-pyrrolo[2,3-b]pyr-idine-2-carboxylate]: 500 to 3000 nM.

The same test, now with this note: Table B; Human Recombinant Matriptase 2, 3.5 nM enzyme, 62 μM substrate, 30 mins preincubation; read-out: Mean Ki.
Consider `CN1CCC(COC(=O)c2cc3ccc(CN)nc3n2CC(NS(=O)(=O)Cc2ccccc2)c2ccccc2)CC1` (stereo not shown) [Compound 2.37], for which the Ki is over 3000 nM.
As for `CN1CCC(CCOC(=O)c2cc3ccc(CN)nc3n2Cc2cc(NS(=O)(=O)Cc3ccsc3)cc3ccccc23)CC1=O` (stereo not shown) [Compound 2.4], the Ki was at most 100 nM.
Still for that read-out and setting: next, `Cc1cccc(C)c1CS(=O)(=O)Nc1cc2c(c(Cn3c(C(=O)OCc4nccn4C)cc4ccc(CN)nc43)c1)CCCC2` [Compound 2.44]: 100 to 500 nM; `CN1CC(COC(=O)c2cc3ccc(CN)nc3n2Cc2cc(NS(=O)(=O)Cc3ccsc3)cc3ccccc23)CC1=O` (stereo not shown) [Compound 2.20]: at most 100 nM.
